Consider 9 compounds from patent US12187684B2, “Benzimidazole derivatives as modulators of retinoid-related orphan receptor gamma (RORγ) and pharmaceutical use thereof” (Jiangsu Hengrui Medicine Co., Ltd., priority 2018, dated 2025).

The structures appear in SMILES notation.

For orientation: IC50 means the concentration that inhibits the measured activity by half. Low readings indicate higher potency, high ones lower potency.

For this test, the target named is T1, RORγ LBD-GST tagged (Homo sapiens, UniProt P51449).
T1 construct: RORγ LBD-GST tagged (Cat No. RORC-114H, Creative Biomart); purchased Creative Biomart RORC-114H
T1 sequence (P51449 269-508 limits assumed): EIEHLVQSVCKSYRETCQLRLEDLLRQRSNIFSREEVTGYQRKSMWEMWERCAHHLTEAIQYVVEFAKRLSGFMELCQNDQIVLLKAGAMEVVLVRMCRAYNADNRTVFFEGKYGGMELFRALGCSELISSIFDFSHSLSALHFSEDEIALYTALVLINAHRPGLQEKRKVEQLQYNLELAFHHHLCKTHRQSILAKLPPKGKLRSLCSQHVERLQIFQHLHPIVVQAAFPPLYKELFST
The test is described as follows: LanthaScreen TR-FRET RORγ coactivator assay. In kind it is biochemical. As to conditions: Fluorescein-D22 coactivator peptide, 1 hour room temperature. In short, it runs like this: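 GST-tagged RORγ LBD (25 ng/reaction) was incubated in coregulator buffer D with 5 mM DTT and compound (top 3 μM, 7-fold steps, 7 doses), then with a mix containing 0.6 μM fluorescein-D22 peptide and 8 nM Tb anti-GST antibody. After 1 h at room temperature in the dark, 520/495 nm TR-FRET was read. IC50 came from log concentration versus percent inhibition.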
On the technique in general: In TR-FRET formats the signal depends on donor and acceptor labels being close together.
Compound `CCS(=O)(=O)c1ccc(C(O)c2nc3c(F)c(-c4ccccc4OC)c(F)cc3[nH]2)cc1` (stereo not drawn) [Example 113, (4,6-difluoro-5-(2-methoxyphenyl)-1H-benzo[d]imidazol-2-yl)(4-(ethylsulfonyl)phenyl)methanol] showed an IC50 of 0.18 µM. With `CCS(=O)(=O)c1ccc(C(CO)c2nc3c(F)c(-c4ccccc4)c(F)cc3[nH]2)cc1` (stereo not drawn) [Example 114, 2-(4,6-difluoro-5-phenyl-1H-benzo[d]imidazol-2-yl)-2-(4-(ethylsulfonyl)phenyl)ethanol] the figure was 0.564 µM; with `CCS(=O)(=O)c1ccc(Cc2nc3c(C)c(-c4ccccc4C(F)(F)F)c(C)cc3[nH]2)cc1` [Example 115, 2-(4-(ethylsulfonyl)benzyl)-4,6-dimethyl-5-(2-(trifluoromethyl)phenyl)-1H-benzo[d]imidazole], 0.171 µM; with `CCS(=O)(=O)c1ccc(C(CO)c2nc3c(C)c(-c4ccccc4C(F)(F)F)c(C)cc3[nH]2)cc1` (stereo not drawn) [Example 116, 2-(4,6-dimethyl-5-(2-(trifluoromethyl)phenyl)-1H-benzo[d]imidazol-2-yl)-2-(4-(ethylsulfonyl)phenyl)ethanol], 0.235 µM.

With `CCS(=O)(=O)c1ccc(C(CO)c2nc3c(C)c(-c4ccccc4OC)c(C)cc3[nH]2)cc1` (stereo not drawn) [Example 117, 2-(4-(ethylsulfonyl)phenyl)-2-(5-(2-methoxyphenyl)-4,6-dimethyl-1H-benzo[d]imidazol-2-yl)ethanol], the IC50 was determined as 0.149 µM. With `CCS(=O)(=O)c1ccc(C(O)c2nc3c(C)c(-c4ccccc4OC)c(C)cc3[nH]2)cc1` (stereo not drawn) [Example 118, (4-(ethylsulfonyl)phenyl)(5-(2-methoxyphenyl)-4,6-dimethyl-1H-benzo[d]imidazol-2-yl)methanol] the figure was 0.306 µM.

The compound `CCS(=O)(=O)c1ccc(C(CO)c2nc3cc(-c4ccccc4OC(F)(F)F)c(F)cc3[nH]2)cc1` (stereo not drawn) [Example 120, 2-(4-(ethylsulfonyl)phenyl)-2-(6-fluoro-5-(2-(trifluoromethoxy)phenyl)-1H-benzo[d]imidazol-2-yl)ethanol] gave an IC50 of 0.321 µM. To `CCS(=O)(=O)c1ccc(C(O)c2nc3cc(-c4ccccc4OC(F)(F)F)c(F)cc3[nH]2)cc1` (stereo not drawn) [Example 121, (4-(ethylsulfonyl)phenyl)(6-fluoro-5-(2-(trifluoromethoxy)phenyl)-1H-benzo[d]imidazol-2-yl)methanol] belongs 0.966 µM. In turn, `O=S(=O)(NC1CC1)c1ccc(Cc2nc3c(Cl)c(-c4ccccc4OC(F)(F)F)c(Cl)cc3[nH]2)cc1` [Example 122, N-cyclopropyl-4-((4,6-dichloro-5-(2-(trifluoromethoxy)phenyl)-1H-benzo[d]imidazol-2-yl)methyl)benzenesulfonamide] came in with an IC50 of 0.049 µM.
